This note sets out measurements from patent US9458181B2, “Cathepsin cysteine protease inhibitors” (Merck Sharp & Dohme Corp., priority 2013, dated 2016).

One experiment has as its target human cathepsin K (UniProt P43236). The experiment is described as follows: Cathepsin K Assay (hrbCat K). Format: biochemical. The settings on record: human cathepsin K 0.4 nM, Z-Leu-Arg-AMC 8 μM, pH 5.5, 15 min preincubation; read-out: hrbCat K IP. A digest of the protocol:
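Human cathepsin K (0.4 nM) in pH 5.5 MES buffer with EDTA, DTT and 10% DMSO was preincubated 15 min at room temperature with compound from a ⅓ dilution series (500-0.025 μM DMSO stocks). Z-Leu-Arg-AMC (8 μM) was then added, and AMC release was followed fluorometrically (Ex 360/Em 460 nm) for 30 min; inhibition was fitted to a dose-response model.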

Another experiment has as its target T1, human cathepsin F (Homo sapiens, UniProt Q9UBX1).
T1 sequence (Q9UBX1 271-484): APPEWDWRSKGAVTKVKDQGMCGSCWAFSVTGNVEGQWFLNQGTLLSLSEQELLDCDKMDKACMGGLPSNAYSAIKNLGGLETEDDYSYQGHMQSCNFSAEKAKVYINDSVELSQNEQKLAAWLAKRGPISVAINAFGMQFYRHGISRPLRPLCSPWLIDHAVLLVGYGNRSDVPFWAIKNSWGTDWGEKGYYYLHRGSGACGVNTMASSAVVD
The experiment is described as follows: Cathepsin F assay (hCat F). Format: biochemical. Particulars: human cathepsin F 10 nM, Z-Phe-Arg-AMC 8 μM, pH 5.5, 15 min preincubation; read-out: hCat F IP. Put shortly:
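Fluorogenic read-out: cleavage of Z-Phe-Arg-AMC (8 μM in added buffer) was followed at Ex 360/Em 460 nm for 20 min, with dose-response fitting of percent inhibition. Before substrate addition, 10 nM human enzyme was incubated 15 min at room temperature with compounds (DMSO stocks 500–0.025 μM) in pH 5.5 MES/EDTA/DTT buffer containing 10% DMSO.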

Turning to `CC(C)(C)c1nc(-c2ccc(N3CCS(=O)(=O)CC3)cc2)c([C@@H]2CCCC[C@H]2C(=O)NC2(C#N)CC2)o1` [Example 11, (1R,2R)-2-(2-(tert-butyl)-4-(4-(1,1-dioxidothiomorpholino)phenyl)oxazol-5-yl)-N-(1-cyanocyclopropyl) cyclohexanecarboxamide], the IC50 stood at 0.00069 µM on human cathepsin K and 0.681 µM at human cathepsin F.
`N#CC1(NC(=O)[C@@H]2CC(F)(F)CC[C@H]2c2oc(-c3ccc(F)cc3)nc2-c2ccc(N3CCS(=O)(=O)CC3)cc2)CC1` [Example 20, (1R,2R)-N-(1-cyanocyclopropyl)-2-(4-(4-(1,1-dioxidothiomorpholino)phenyl)-2-(4-fluorophenyl)oxazol-5-yl)-5,5-difluorocyclohexane-carboxamide]: the IC50 amounted to 0.00028 µM at human cathepsin K and 0.071 µM at human cathepsin F.
Regarding `C[C@H]1CC(F)(F)CC[C@@H]1c1nc(-c2ccc(N3CCS(=O)(=O)CC3)cc2)c([C@@H]2CCCC[C@H]2C(=O)NC2(C#N)CC2)o1` [Example 108, (1R,2R)-N-(1-cyanocyclopropyl)-2-(2-((1S,2S)-4,4-difluoro-2-methylcyclohexyl)-4-(4-(1,1-dioxidothiomorpholino)phenyl)oxazol-5-yl)cyclohexanecarboxamide], the IC50 on human cathepsin K was found to be 0.00208 µM; at human cathepsin F, 1.39 µM.
The like results for `N#CC1(NC(=O)[C@@H]2CCCC[C@H]2c2oc(C3CC4CC4C3)nc2-c2ccc(N3CCS(=O)(=O)CC3)cc2)CC1` (mixture of isomers) [Example 118, (1R,2R)-2-(2-((1R,3R,5S and 1R,3S,5S)-bicyclo[3.1.0]hexan-3-yl)-4-(4-(1,1-dioxidothiomorpholino)phenyl)oxazol-5-yl)-N-(1-cyanocyclopropyl) cyclohexanecarboxamide] were, in that order, 0.00085 µM and 0.767 µM.
The like results for `N#CC1(NC(=O)[C@@H]2CCCC[C@H]2c2sc(C(F)(F)F)nc2-c2ccc(N3CCS(=O)(=O)CC3)cc2)CC1` [Example 60, (1R,2R)-N-(1-cyanocyclopropyl)-2-(4-(4-(1,1-dioxidothiomorpholino)phenyl)-2-(trifluoromethyl)thiazol-5-yl)cyclohexanecarboxamide] were, in that order, 0.00437 µM and 3.29 µM.
On to `N#CC1(NC(=O)[C@@H]2CCCC[C@H]2c2sc(-c3ccc(F)cc3)nc2-c2ccc(N3CCS(=O)(=O)CC3)cc2)CC1` [Example 56, (1R,2R)-N-(1-cyanocyclopropyl)-2-(4-(4-(1,1-dioxidothiomorpholino)phenyl)-2-(4-fluorophenyl)thiazol-5-yl)cyclohexanecarboxamide], for which the IC50 at human cathepsin K worked out at 0.00319 µM; at human cathepsin F, 0.722 µM.
Taken in the same sequence, the figures for `N#CC1(NC(=O)[C@@H]2CCCC[C@H]2c2oc(C3CC4CCC(C3)C4(F)F)nc2-c2ccc(N3CCS(=O)(=O)CC3)cc2)CC1` (mixture of isomers) [Example 109, (1R,2R)-N-(1-cyanocyclopropyl)-2-(2-((1R,3R,5S and 1R,3S,5S)-8,8-difluorobicyclo[3.2.1]octan-3-yl)-4-(4-(1,1-dioxidothiomorpholino)phenyl)oxazol-5-yl)cyclohexanecarboxamide] were 0.0017 µM and 1.5 µM.
For `N#CC1(NC(=O)[C@@H]2CC3CC3C[C@H]2c2oc(-c3ccc(F)cn3)nc2-c2ccc(N3CCS(=O)(=O)CC3)cc2)CC1` (single isomer, unassigned) [Example 9, (1R,3R,4R,6S or 1S,3R,4R,6R)-N-(1-cyanocyclopropyl)-4-(4-(4-(1,1-dioxidothiomorpholino)phenyl)-2-(5-fluoropyridin-2-yl)oxazol-5-yl)bicyclo[4.1.0]heptane-3-carboxamide], the figures for the IC50 on human cathepsin K and on human cathepsin F were 0.00354 µM and 1.18 µM, respectively.
The like results for `N#CC1(NC(=O)[C@@H]2CCCC[C@H]2c2oc(-c3cccc(Cl)c3)nc2-c2ccc(N3CCS(=O)(=O)CC3)cc2)CC1` [Example 5, (1R,2R)-2-(2-(3-Chlorophenyl)-4-(4-thiomorpholino-1,1-dioxide-phenyl)oxazol-5-yl)-N-(1-cyanocyclopropyl)cyclohexanecarboxamide] were, in that order, 0.00056 µM and 0.507 µM.
The like results for `COC1CC(c2nc(-c3ccc(N4CCS(=O)(=O)CC4)cc3)c([C@@H]3CCCC[C@H]3C(=O)NC3(C#N)CC3)o2)C1` (mixture of isomers) [Example 117, (1R,2R)-N-(1-cyanocyclopropyl)-2-(4-(4-(1,1-dioxidothiomorpholino)phenyl)-2-((1R,3R and 1S,3S)-3-methoxycyclobutyl)oxazol-5-yl)cyclohexanecarboxamide] were, in that order, 0.00146 µM and 2.24 µM.
Taken in the same sequence, the figures for `CCC(C#N)NC(=O)[C@@H]1CCCC[C@H]1c1oc(-c2ccc(F)cc2)nc1-c1ccc(N2CCS(=O)(=O)CC2)cc1` (single isomer, unassigned) [Example 126, (1R,2R)-N-((R or S)-1-cyanopropyl)-2-(4-(4-(1,1-dioxidothiomorpholino)phenyl)-2-(4-fluorophenyl)oxazol-5-yl)cyclohexanecarboxamide] were 0.0146 µM and 9.02 µM.
Regarding `C[C@@H]1CC(F)(F)CC[C@@H]1c1nc(-c2ccc(N3CCS(=O)(=O)CC3)cc2)c([C@@H]2CCCC[C@H]2C(=O)NC2(C#N)CC2)o1` [Example 107, (1R,2R)-N-(1-cyanocyclopropyl)-2-(2-((1S,2R)-4,4-difluoro-2-methylcyclohexyl)-4-(4-(1,1-dioxidothiomorpholino)phenyl)oxazol-5-yl)cyclohexanecarboxamide], the IC50 stood at 0.00231 µM on human cathepsin K and 1.29 µM on human cathepsin F.
The like results for `N#CC1(NC(=O)[C@@H]2CCCC[C@H]2c2oc(CC(F)(F)F)nc2-c2ccc(N3CCS(=O)(=O)CC3)cc2)CC1` [Example 15, (1R,2R)-N-(1-cyanocyclopropyl)-2-(4-(4-(1,1-dioxidothiomorpholino)phenyl)-2-(2,2,2-trifluoroethyl)oxazol-5-yl)cyclohexanecarboxamide] were, in that order, 0.0018 µM and 0.64 µM.
Taken in the same sequence, the figures for `N#CC1(NC(=O)[C@@H]2CCCC[C@H]2c2oc(-c3ccc(F)cc3)nc2-c2ccc(N3CCS(=O)(=O)CC3)cc2)COC1` [Example 153, (1R,2R)-N-(3-cyanooxetan-3-yl)-2-(4-(4-(1,1-dioxidothiomorpholino)phenyl)-2-(4-fluorophenyl)oxazol-5-yl)cyclohexanecarboxamide] were 0.00067 µM and 0.21 µM.
Taken in the same sequence, the figures for `CC(C#N)NC(=O)[C@@H]1CCCC[C@H]1c1oc(-c2ccc(F)cc2)nc1-c1ccc(N2CCS(=O)(=O)CC2)cc1` (single isomer, unassigned) [Example 122, (1R,2R)-N-((S or R)-1-cyanoethyl)-2-(4-(4-(1,1-dioxidothiomorpholino)phenyl)-2-(4-fluorophenyl)oxazol-5-yl)cyclohexanecarboxamide] were 0.0008 µM and 0.198 µM.
Consider `N#CC1(NC(=O)[C@@H]2CCCC[C@H]2c2oc(-c3ccc(F)cc3F)nc2-c2ccc(N3CCS(=N)(=O)CC3)cc2)CC1` [Example 106, (1R,2R)-N-(1-cyanocyclopropyl)-2-(2-(2,4-difluorophenyl)-4-(4-(1-imino-1-oxidothiomorpholino)phenyl)oxazol-5-yl)cyclohexanecarboxamide], for which the figures for the IC50 on human cathepsin K and at human cathepsin F were 0.00159 µM and 0.192 µM, respectively.
As for `N#CC1(NC(=O)[C@@H]2CCCC[C@H]2c2oc(-c3cncc(F)c3)nc2-c2ccc(N3CCS(=O)(=O)CC3)cc2)CC1` [Example 33, (1R,2R)-N-(1-cyanocyclopropyl)-2-(4-(4-(1,1-dioxidothiomorpholino)phenyl)-2-(5-fluoropyridin-3-yl)oxazol-5-yl)cyclohexanecarboxamide], the IC50 came to 0.00199 µM on human cathepsin K and 1.32 µM at human cathepsin F.
With `N#CC(CC(F)(F)F)NC(=O)[C@@H]1CCCC[C@H]1c1oc(-c2ccc(F)cc2)nc1-c1ccc(N2CCS(=O)(=O)CC2)cc1` (single isomer, unassigned) [Example 131, (1R,2R)-N-((R or S)-1-cyano-3,3,3-trifluoropropyl)-2-(4-(4-(1,1-dioxidothiomorpholino)phenyl)-2-(4-fluorophenyl)oxazol-5-yl)cyclohexanecarboxamide], the IC50 on human cathepsin K is 0.00065 µM; at human cathepsin F it was 0.014 µM.
Taken in the same sequence, the figures for `Cc1nccc(-c2nc(-c3ccc(N4CCS(=O)(=O)CC4)cc3)c([C@@H]3CCCC[C@H]3C(=O)NC3(C#N)CC3)o2)n1` [Example 82, (1R,2R)-N-(1-cyanocyclopropyl)-2-(4-(4-(1,1-dioxidothiomorpholino)phenyl)-2-(2-methylpyrimidin-4-yl)oxazol-5-yl)cyclohexanecarboxamide] were 0.00266 µM and 5.14 µM.
Taken in the same sequence, the figures for `N#CC1(NC(=O)[C@@H]2CCCC[C@H]2c2oc(-c3ccccn3)nc2-c2ccc(N3CCS(=O)(=O)CC3)cc2)CC1` [Example 28, (1R,2R)-N-(1-cyanocyclopropyl)-2-(4-(4-(1,1-dioxidothiomorpholino)phenyl)-2-(pyridin-2-yl)oxazol-5-yl)cyclohexanecarboxamide] were 0.00126 µM and 1.36 µM.
